Test results as given in article PMC6144582, “The Binding of BF-227-Like Benzoxazoles to Human α-Synuclein and Amyloid β Peptide Fibrils” (Molecular Imaging, 2018).
Like-named read-outs stand apart in the source and are kept apart here.

Tests used:
human α-Syn fibrils = molecular target: T1, human α-Syn fibrils (Homo sapiens, UniProt P37840); assay: Competition binding against 5 nM [3H]BF-227 on α-Syn fibrils; conditions: for Ki: 5 nM [3H]BF-227, Cheng-Prusoff, geometric mean (low; high errors of the geometric mean); for Ki(Aβ)/Ki(α-Syn): selectivity for α-Syn binding, ratio of Ki on Aβ fibrils to Ki on α-Syn fibrils
T1 construct: Human full-length α-Syn (NM_000345) was cloned; made in house; host or cells: Escherichia coli BL21 (D3)
Protocol: Human full-length α-Syn (NM_000345) was cloned into the ampicillin-resistant Escherichia coli expression vector PET7-7 and transformed into BL21 (D3) strains for expression. The recombinant α-Syn was expressed and purified to ≥95% purity as described previously.[6] The monomeric α-Syn was formulated in 10 mM Tris–HCl, pH 7.6, 50 mM NaCl at 5 mg/mL. For fibril formation, 500 µL of purified α-Syn monomer was subjected to continuous shaking at 1000 rpm in an Eppendorf Thermomixer at 37°C for 7 days. The monomer was removed from fibrils by high-speed centrifugation with a Beckman-Coulter tabletop Optima MAX-XP (Beckman-Coulter, Indianapolis, Indiana) ultra-centrifuge at 600 000g for 40 minutes, followed by 3 PBS/centrifugation wash steps. After each centrifugation step, the supernatant was removed and the concentration of α-Syn in the supernatant was calculated from absorbance at 280 nm. The pellet was resuspended in PBS, and the concentration of fibrils was estimated by subtracting the total amount of α-Syn in the supernatant from all the wash steps and confirmed by BCA assay before use.
(§1) Competition studies were carried out using 5 nM [^3H]BF-227. Experiments were performed in 50 mM Tris–HCl pH 7.5, 150 mM NaCl, and 0.1% bovine serum albumin in a reaction volume of 200 µL. Incubations were initiated with the addition of human α-Syn ([…]) or Aβ1-42 (0.1 μM/well) fibrils at room temperature and terminated 2 hours later by rapid vacuum filtration over Whatman GF/C 96-well Unifilters (Brandel [Gaithersburg, Maryland]) presoaked in cold wash buffer (50 mM Tris–HCl, pH7.4), followed by four 200 µL washes with cold wash buffer. Filters containing bound ligand were mixed with 50 µL Microscint-PS (Perkin-Elmer [Waltham, Massachusetts]) and counted with a MicroBeta2 Scintillation Counter (Perkin Elmer). All data points were performed in triplicate. Values for the saturation binding dissociation constant (KD) and the maximal number of binding sites (Bmax) were determined by fitting the data to the equation Y = Bmax × X/(X + KD) using nonlinear regression analysis. IC50 values were generated from the concentration–response curves using nonlinear regression analysis and converted to Ki values with the Cheng-Prusoff equation.[7] Data analysis was performed with GraphPad Prism version 7.02.
(§2) Results are expressed as inhibition constants (Ki, nM) corrected for ligand occupancy.[7] Each value is a geometric mean from the indicated numbers of experiments (n), with the numbers in parentheses indicating the low and high errors of the geometric mean. Also shown are the Log P, tPSA, and CLogP values for these compounds. These can be compared with means for the 5 Aβ imaging agents which can serve as an empirical training set to judge the likely in vivo behavior of new compounds.

Aβ1-42 fibrils = molecular target: T2, Aβ1-42 fibrils (Homo sapiens, UniProt P05067); assay: Competition binding against 5 nM [3H]BF-227 on Aβ1-42 fibrils; conditions: 5 nM [3H]BF-227, Cheng-Prusoff; geometric mean (low; high errors of the geometric mean); read-out: Aβ Ki
T2 construct: Aβ1-42 peptide 5 mg, Cat #20276-5 (Anaspec, Fremont, California); purchased Anaspec 20276-5
Protocol: The clear peptide solution was transferred to a 15 mL conical tube. […] Subsequently, 4 mL of Milli-Q-H2O was added to the conical tube followed by the addition of 125 µL of 1 M Tris–HCl, pH 7.5 with gentle mixing of the solution. The final volume was 5 mL, with the starting peptide concentration at 1 mg/mL. The peptide solution was divided into 5 × 1 mL aliquots with 1.5 mL Eppendorf tubes and incubated for 72 hours at 37°C with shaking at 1000 rpm in an Eppendorf Thermomixer. […] Fibril stock solutions were stored at −80°C.
as §1, with “Experiments” for “Competition studies were carried out using 5 nM [^3H]BF-227. Experiments”, “equation.[7]” for “equation.[7] Data analysis was performed with GraphPad Prism version 7.02.”
as §2, with “Also shown are the Log P, tPSA, and CLogP values for these compounds.” left out

synthetic Aβ fibrils [1] = molecular target: synthetic Aβ fibrils; design: method as in PMID 17401091; conditions: reported value; cited from earlier work
synthetic Aβ fibrils [2] = molecular target: synthetic Aβ fibrils; design: method as in PMID 19576880; conditions: reported value; cited from earlier work
synthetic α-Syn fibrils = molecular target: synthetic α-Syn fibrils; design: method as in PMID 19576880; conditions: reported value; cited from earlier work
Lewy body = tested on: Lewy body; design: method as in PMID 19576880; conditions: high concentration (100 μM); cited from earlier work
[3] = tested on: α-Syn-positive, Aβ-negative dementia with Lewy body human brain homgenates; design: method as in PMID 28826526; conditions: cited from earlier work

T2 sequence (P05067 672-713 limits assumed): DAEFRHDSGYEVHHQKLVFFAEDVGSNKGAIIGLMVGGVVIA

SMILES	Ki (human α-Syn fibrils) [nM]	Ki(Aβ)/Ki(α-Syn) (human α-Syn fibrils)	Ki (Aβ1-42 fibrils) [nM]	further results
CN(C)c1ncc(/C=C/c2nc3ccc(OCCCF)cc3o2)s1 [Compound 2]	157	0.06	9.01	–
CN(C)c1ncc(/C=C/c2nc3ccc(OCCCCCCF)cc3o2)s1 [Compound 5]	462	0.05	23	–
CN(C)c1ncc(/C=C/c2nc3ccc(OCCCCCCCF)cc3o2)s1 [Compound 6]	212	0.13	27	–
CN(C)c1ncc(/C=C/c2nc3ccc(OCCOCCOCCF)cc3o2)s1 [Compound 8]	52	0.25	13	–
CN(C)c1ncc(/C=C/c2nc3ccc(OCCOCCOCCOCCF)cc3o2)s1 [Compound 9]	100	0.26	26	–
CN(C)c1ncc(/C=C/c2nc3ccc(OCCOCCOCCOCCOCCF)cc3o2)s1 [Compound 10]	75	0.24	18	–
CN(C)c1ncc(/C=C/c2nc3ccc(OCCCCCF)cc3o2)s1 [Compound 4]	297	0.09	28	–
CN(C)c1ncc(/C=C/c2nc3ccc(OCCOCCF)cc3o2)s1 [Compound 7]	83	0.13	11	–
CN(C)c1ncc(/C=C/c2nc3ccc(OCCCCF)cc3o2)s1 [Compound 3]	378	0.08	31	–
NCCNC(=O)c1ccc(Cl)cc1 [RO-16-6491, reference compound]	> 9000	–	> 7000	–
Cc1ccc2c(sc(-c3ccc4c(c3)sc(-c3ccc(N(C)C)cc3)[n+]4C)[n+]2C)c1S(=O)(=O)O [reference compound]	> 9000	≤0.2	2150	–
CN(C)c1ncc(C=Cc2nc3ccc(OCCF)cc3o2)s1 [[^18F]BF-227]	–	–	–	Binding to α-Syn-positive, Aβ-negative dementia with Lewy body human brain homogenates [3]: failed to bind

Now from value to molecule, other results behind:

Ki (human α-Syn fibrils) [nM]	Ki(Aβ)/Ki(α-Syn) (human α-Syn fibrils)	Ki (Aβ1-42 fibrils) [nM]	SMILES	further results
55	–	–	CNc1ccc(-c2nc3ccc(O)cc3s2)cc1 [PiB, reference compound]	–
328	3.8	1250	Fc1ccc2nc(/C=C/c3ccccc3)oc2c1 [Compound 13]	–
238	2.2	528	Fc1ccc2oc(/C=C/c3ccccc3)nc2c1 [Compound 14]	–
184	–	76	COc1cc(/C=C/c2ccc(N)cc2)ccc1/C=C/c1ccc(N)cc1 [BMB, 1,4-bis(paminostyryl)-2-methoxy benzene, reference compound]	–
24	0.46	12	CNc1ccc(/C=C/c2ccc(OCCOCCOCCF)nc2)cc1 [Florbetapir (AV-45), reference compound]	–
48	1.35	65	CNc1ccc(-c2nc3ccc(O)cc3s2)cc1F [Flutemetamol, reference compound]	–
–	0.30	223	CN(C)c1ncc(/C=C/c2nc3ccc(I)cc3o2)s1 [Compound 11]	–
64	–	–	CNc1ccc(-c2nc3ccccc3s2)cc1 [BTA-1, reference compound]	–
286	5.1	1450	Fc1ccc2nc(/C=C/c3cncs3)oc2c1 [Compound 15]	–
53	0.23	12	CN(C)c1ncc(C=Cc2nc3ccc(OCCF)cc3o2)s1 [Compound 1, 2-(2-[2-dimethylaminothiazol-5-yl]ethenyl)-6-(2-[fluoro]ethoxy)benzoxazole]	Kd (synthetic Aβ fibrils [1]): 4.1 nM; Kd (synthetic Aβ fibrils [2]): 1.31 nM; Kd (synthetic α-Syn fibrils): 9.3 nM; Lewy body fluorescence in histochemical analysis (Lewy body): led to Lewy body fluorescence
276	0.35	96	CN(C)c1ncc(/C=C/c2nc3cc(I)ccc3o2)s1 [Compound 12]	–
32	1.34	42	CNc1ccc(-c2cc3cc(O)ccc3o2)c(F)n1 [Flutafuranol (NAV 4694), reference compound]	–
> 9000	–	> 5000	C#CCN(C)CCCOc1ccc(Cl)cc1Cl [Clorgyline, reference compound]	–
